The source of these data is PMC11080515, “Novel anthraquinone amide derivatives as potential glyoxalase-I inhibitors” (Journal of Medicine and Life, 2024).

Values joined by “and” are separate entries in the source; they are usually repeats but may differ in a detail not shown here. Equal entries are not always repeated. Where two headings read alike, the source gives them in different places.

This assay deals with T1, Recombinant human Glo-I (rhGlo-I) (Homo sapiens, UniProt Q04760).
T1 construct: purchased R&D Systems Corporation
T1 sequence (Q04760 2-184 limits assumed): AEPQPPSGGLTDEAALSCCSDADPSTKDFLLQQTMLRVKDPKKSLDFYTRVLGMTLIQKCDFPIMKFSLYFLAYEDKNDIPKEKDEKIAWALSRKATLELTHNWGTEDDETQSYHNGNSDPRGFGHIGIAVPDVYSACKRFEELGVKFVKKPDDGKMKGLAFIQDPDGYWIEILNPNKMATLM
The experiment in a line: In vitro Glo-I enzyme inhibition assay (spectrophotometric, 240 nm). Particulars: for inhibition at 0.625 µM / % Inhibition / inhibition at 1.25 µM / inhibition at 2.5 µM / inhibition at 5 µM / inhibition at 10 µM: single replicates. The arrangement: average inhibitory activity: dose or concentration left out as unconfirmed. It is filed as biochemical. Here is the method: Glo-I inhibitory action was evaluated following the methodology described by Al-Balas et al.. Recombinant human Glo-I (rhGlo-I) was procured from R&D Systems Corporation and […] in sterile deionized water at a precise concentration of 0.5 mg/ml before being reconstituted. The reconstituted rhGlo-I was stored at -70 °C until further use. Dimethyl sulfoxide (DMSO) was used to dissolve the test compounds to produce stock solutions with a 10 mM concentration. The assay buffer required for the experiment was made by mixing 0.1 M sodium phosphate monobasic solution with 0.1 M sodium phosphate dibasic solution, resulting in a pH range of 7.0–7.2. The reduced glutathione and methylglyoxal solutions were combined with a sufficient 0.1 M sodium phosphate assay buffer volume to create the substrate combination. In a cuvette, the assay buffer, substrate solution, and Glo-I enzyme were combined with the synthesized products at the required concentration. […] The maximum absorbance (γmax) was recorded at 240 nm.
In this study, the inhibitory activity of all synthesized compounds against the Glo-I enzyme was evaluated in vitro using recombinant human Glo-I obtained from R&D Systems Corporation. The methodology previously described was employed, which involved measuring the inhibition of Glo-I activity and substrate hydrolysis using a spectrophotometer at 240 nm. […] The activity profile of the tested compounds against Glo-I is depicted in Figure 12.

The mark [1] stands for this setting: concentration 0.625 µM, 0.625 µM.
[2] abbreviates: from the % inhibition curve, 0.625-10 µM, read-out: Calculated IC50.
Where [3] appears, read: rhGlo-I, 25 °C, pH 7.0-7.2, read-out: IC50.

As to `O=C(C=Cc1ccccc1)Nc1cccc2c1C(=O)c1ccccc1C2=O` [MQ5, N-(9, 10-dioxo-9, 10-dihydroanthracen-1-yl) cinnamamide], under “concentration 0.625 µM”, the inhibition (commonly the change of the read-out against control, counted positive when it falls) at 0.625 µM was found to be 8.82%. In addition, the % Inhibition – broadly, how much of the control response was suppressed – is 8.55% and 10.84% under setting [1]; 9.974% and 12.33% (concentration 1.25 µM, 1.25 µM); 12.23% and 12.25% (concentration 2.5 µM, 2.5 µM); 12.81% and 20.99% (concentration 5 µM, 5 µM); 29% and 27.36% (concentration 10 µM, 10 µM). The inhibition at 1.25 µM (concentration 1.25 µM) amounted to 10.2%. Further, where the note is “concentration 2.5 µM”, the inhibition at 2.5 µM amounted to 14.3%. The inhibition at 5 µM (concentration 5 µM) came out at 11.6%. Further, for the setting “concentration 10 µM”, the inhibition at 10 µM came to 22%. Moreover, the concentration for half-maximal inhibition (IC50) (commonly the concentration that gives 50% inhibition) runs as follows: under setting [2], 107 µM; under setting [3], 107 µM.
In the case of `O=C(/C=C/c1ccc(O)c(O)c1)Nc1cccc2c1C(=O)c1ccccc1C2=O` [MQ1, (E)-3-(3,4-dihydroxyphenyl)-N-(9, 10-dioxo-9, 10-dihydroanthracen-1-yl) acrylamide], the “% Inhibition” value runs as follows: under setting [1], 4.207% and 6.929% and 8.658%; (concentration 1.25 µM, 1.25 µM) 11.45% and 12.03%; (concentration 2.5 µM, 2.5 µM) 13.44% and 14.71%; (concentration 5 µM, 5 µM) 20.12% and 19.93%; (concentration 10 µM, 10 µM) 34.53% and 33.46%. The inhibition at 1.25 µM (concentration 1.25 µM) was 12%. Moreover, the inhibition at 2.5 µM (concentration 2.5 µM) stood at 11.8%. Moreover, the inhibition at 5 µM (concentration 5 µM) amounted to 18.8%. For the same compound, the inhibition at 10 µM (concentration 10 µM) was found to be 33.4%. For the same compound, the IC50 is, setting by setting: under setting [2], 27.9 µM; under setting [3], 27.9 µM.
`O=C(/C=C/c1ccc(O)c(O)c1)Nc1ccc2c(c1)C(=O)c1ccccc1C2=O` [MQ3, (E)-3-(3,4-dihydroxyphenyl)-N-(9, 10-dioxo-9, 10-dihydroanthracen-2-yl) acrylamide]: the average inhibitory activity was found to be 96.63%. The inhibition at 0.625 µM (concentration 0.625 µM) amounted to 27.5%. The “% Inhibition” value under setting [1] is 28.34% and 22.6726%. Moreover, the inhibition at 1.25 µM (concentration 1.25 µM) came to 39.2%. Besides, the “% Inhibition” value (concentration 1.25 µM, 1.25 µM) is 42.53% and 40.76%. Further, the inhibition at 2.5 µM (concentration 2.5 µM) stood at 69.6%. Under “concentration 2.5 µM, 2.5 µM”, the “% Inhibition” value was 70.04% and 70.55%. Moreover, the inhibition at 5 µM (concentration 5 µM) is 82.3%. The “% Inhibition” value (concentration 5 µM, 5 µM) is 84.9% and 85.44%. For the same compound, the inhibition at 10 µM (concentration 10 µM) amounted to 97.5%. For the setting “concentration 10 µM, 10 µM”, the “% Inhibition” value was 93.8% and 98.6%. Besides, the IC50 under setting [2] was 1.46 µM. Besides, the IC50 under setting [3] is 1.46 µM and 1.45 µM.
In the case of `O=C(C=Cc1ccccc1)Nc1ccc2c(c1)C(=O)c1ccccc1C2=O` [MQ4, N-(9, 10-dioxo-9, 10-dihydroanthracen-2-yl) cinnamamide], the “% Inhibition” value under setting [1] is 6.208% and 1.894% and 2.93%; the “% Inhibition” value (concentration 1.25 µM, 1.25 µM) is 3.871% and 7.392%; the “% Inhibition” value (concentration 2.5 µM, 2.5 µM) is 12.3% and 11.67%; the “% Inhibition” value (concentration 5 µM, 5 µM) is 20.18% and 23.19%; the “% Inhibition” value (concentration 10 µM, 10 µM) is 41.45% and 37.85%. The inhibition at 1.25 µM (concentration 1.25 µM) turned out to be 5.03%. Moreover, the inhibition at 2.5 µM (concentration 2.5 µM) amounted to 10.8%. The inhibition at 5 µM (concentration 5 µM) came to 19.4%. Further, the inhibition at 10 µM (concentration 10 µM) turned out to be 40.4%. The IC50 by setting is: under setting [2], 14.5 µM; under setting [3], 14.5 µM.
